Laboratory results published in patent US20220041588A1, “SUBSTITUTED IMIDAZO[1,2-A]PYRIDINE AND [1,2,4]TRIAZOLO[1,5-A]PYRIDINE COMPOUNDS AS RET KINASE INHIBITORS” (FOCHON PHARMACEUTICALS, LTD., priority 2018, published 2022).

Legend:
[1] = system: LC-2/ad (CCDCl6-RET) cells; assay: Cell proliferation assay (MTS), LC-2/ad cells; type: cell-based; details: LC-2/ad cells (CCDCl6-RET), 72 h incubation, MTS readout
Description: (§1) MTS testing kit was purchased from Promega. The RPMI-1640, F12, F12K, Fetal bovine serum and Penicillin-Streptomycin were purchased from BI. Glutamine and Dimethyl sulfoxide (DMSO) were purchased from Sigma. TT cells were cultured in F12K supplemented with 10% FBS and LC-2/ad cells were cultured in HamF12: RPMI1640 (1:1) supplemented with 10% FBS and 2 mM Glutamine.
(§2) To investigate whether a compound is able to inhibit the activity of RET fusion and/or mutation in cells, a mechanism-based assay using TT (RET C634W) and LC-2/ad (CCDCl6-RET) cell lines was developed. In this assay, the inhibition of RET fusion and/or mutation was reflected by the inhibition of cell proliferation of TT and LC-2/ad cells. Cells were plated into 96-well plates at the optimized cell density (TT: 5000 cells/well; LC-2/ad: 5000 cells/well). Plates were incubated at 37° C., with 5% CO2 for 24 h. Compounds were serially diluted and added to the plates with the final concentrations as 10000, 3333.3, 1111.1, […], 123.5, 41.2, 13.7, 4.6 and 1.5 nM. Plates were incubated at 37° C., with 5% CO2 for 72 h. An aliquot of 20 μL MTS/100 μL medium mixture solution were added to each well and the plates were incubated for exactly 2 h. The reaction was stopped by adding 25 μL 10% SDS to each well. The absorbance was measured by a microplate reader at 490 nm and 650 nm (reference wavelength). IC50 was calculated using GraphPad Prism 5.0.

[2] = system: TT (RET C634W) cells; assay: Cell proliferation assay (MTS), TT cells; type: cell-based; details: 72 h incubation, MTS readout
Description: as §1, §2

CC(C)(O)COc1cc(-c2ccc(N3CCC(O)(Cc4ccccc4)CC3)nc2)n2c(C#N)cnc2c1 [Example 66, 5-(6-(4-benzyl-4-hydroxypiperidin-1-yl)pyridin-3-yl)-7-(2-hydroxy-2-methylpro-poxy)imidazo[1,2-a]pyridine-3-carbonitrile]
IC50 ([1]; Homo sapiens, LC-2-ad, 72 h): 55 nM
IC50 ([2]; Homo sapiens, TT, 72 h): 117 nM

Cn1cc(-c2cc(-c3ccc(N4CCN(Cc5ccn(C)n5)CC4)nc3)n3c(C#N)cnc3c2)cn1 [Example 37, 5-(6-(4-((1-methyl-1H-pyrazol-3-yl)methyl)piperazin-1-yl)pyridin-3-yl)-7-(1-methyl-1H-pyrazol-4-yl)imidazo [1,2-a]pyridine-3-carbonitrile]
IC50 ([1]; Homo sapiens, LC-2-ad, 72 h): 41 nM
IC50 ([2]; Homo sapiens, TT, 72 h): 45 nM

COc1ccc(CN2C3CC2CN(c2ccc(-c4cc(OCC5(O)CC5)cc5ncc(C#N)n45)cn2)C3)cn1 [Example 57B, 7-((1-Hydroxycyclopropyl)methoxy)-5-(6-(6-((6-methoxypyridin-3-yl)methyl)-3,6-diazabicyclo[3.1.1]heptan-3-yl)pyridin-3-yl)imidazo[1,2-a]pyridine-3-carbonitrile]
IC50 [1]: 115 nM
IC50 [2]: 127 nM

Cn1cc(-c2cc(-c3ccc(N4CCN(CCS(=O)(=O)c5ccccc5)CC4)nc3)n3c(C#N)cnc3c2)cn1 [Example 38, 7-(1-methyl-1H-pyrazol-4-yl)-5-(6-(4-(2-(phenylsulfonyl)ethyl)piperazin-1-yl)pyridin-3-yl)imidazo[1,2-a]pyr-idine-3-carbonitrile]
IC50 ([1]; Homo sapiens, LC-2-ad, 72 h): 34 nM
IC50 ([2]; Homo sapiens, TT, 72 h): 38 nM

CC(C)(O)COc1cc(-c2ccc(N3CCC(Oc4ccccn4)CC3)nc2)n2c(C#N)cnc2c1 [Example 64, 7-(2-hydroxy-2-methylpropoxy)-5-(6-(4-(pyridin-2-yloxy)piperidin-1-yl)pyridin-3-yl)imidazo[1,2-a]pyridine-3-carbonitrile]
IC50 ([1]; Homo sapiens, LC-2-ad, 72 h): 28 nM
IC50 ([2]; Homo sapiens, TT, 72 h): 87 nM

Cn1cc(-c2cc(-c3ccc(N4CCN(Cc5ccccn5)CC4)nc3)n3c(C#N)cnc3c2)cn1 [Example 52, 7-(1-methyl-1H-pyrazol-4-yl)-5-(6-(4-(pyridin-2-ylmethyl)piperazin-1-yl)pyridin-3-yl)imidazo[1,2-a]pyridine-3-carbonitrile]
IC50 ([1]; Homo sapiens, LC-2-ad, 72 h): 42 nM
IC50 ([2]; Homo sapiens, TT, 72 h): 24 nM

Cn1cc(-c2cc(-c3ccc(N4CCC(O)(Cc5ccccc5)CC4)nc3)n3c(C#N)cnc3c2)cn1 [Example 22, 5-(6-(4-benzyl-4-hydroxypiperidin-1-yl)pyridin-3-yl)-7-(1-methyl-1H-pyr-azol-4-yl)imidazo[1,2-a]pyridine-3-carbonitrile]
IC50 ([1]; Homo sapiens, LC-2-ad, 72 h): 1 nM
IC50 ([2]; Homo sapiens, TT, 72 h): 4 nM

COc1ccc(CN2CCN(c3ccc(-c4cc(-c5cnn(CCN6CCOCC6)c5)cc5ncc(C#N)n45)cn3)CC2)cn1 [Example 26, 5-(6-(4-((6-methoxypyridin-3-yl)meth-yl)piperazin-1-yl)pyridin-3-yl)-7-(1-(2-morpholinoethyl)-1H-pyrazol-4-yl)imidazo[1,2-a]pyridine-3-carbonitrile]
IC50 ([1]; Homo sapiens, LC-2-ad, 72 h): 89 nM
IC50 ([2]; Homo sapiens, TT, 72 h): 74 nM

Cn1cc(-c2cc(-c3ccc(N4CCC(O)(Cc5ccccn5)CC4)nc3)n3c(C#N)cnc3c2)cn1 [Example 21, 5-(6-(4-hydroxy-4-(pyridin-2-ylmeth-yl)piperidin-1-yl)pyridin-3-yl)-7-(1-methyl-1H-pyrazol-4-yl)imidazo[1,2-a]pyridine-3-carbonitrile]
IC50 ([1]; Homo sapiens, LC-2-ad, 72 h): 12 nM
IC50 ([2]; Homo sapiens, TT, 72 h): 12 nM

CC(C)[C@@H](O)C(=O)N1CCN(c2ccc(-c3cc(-c4cnn(C)c4)cc4ncc(C#N)n34)cn2)CC1 [Example 17, (R)-5-(6-(4-(2-hydroxy-3-methylbuta-noyl)piperazin-1-yl)pyridin-3-yl)-7-(1-methyl-1H-pyrazol-4-yl)imidazo [1,2-a]pyridine-3-carbonitrile]
IC50 ([1]; Homo sapiens, LC-2-ad, 72 h): 45 nM
IC50 ([2]; Homo sapiens, TT, 72 h): 48 nM

COc1ccc(OC2CCN(c3ccc(-c4cc(OCC(O)C(F)(F)F)cc5ncc(C#N)n45)cn3)CC2)cn1 (stereo not drawn) [Example 69, 5-(6-(4-((6-methoxypyridin-3-yl)oxy)pi-peridin-1-yl)pyridin-3-yl)-7-(3,3,3-trifluoro-2-hydroxypropoxy)imidazo[1,2-a]pyri-dine-3-carbonitrile]
IC50 ([1]; Homo sapiens, LC-2-ad, 72 h): 49 nM
IC50 ([2]; Homo sapiens, TT, 72 h): 57 nM

COc1ccc(OC2CCN(c3ccc(-c4cc(-c5cnn(C)c5)cc5ncc(C#N)n45)cn3)CC2)nn1 [Example 19, 5-(6-(4-((6-methoxypyridazin-3-yl)oxy)piperidin-1-yl)pyridin-3-yl)-7-(1-methyl-1H-pyrazol-4-yl)imidazo[1,2-a]pyridine-3-carbonitrile]
IC50 ([1]; Homo sapiens, LC-2-ad, 72 h): 6 nM
IC50 ([2]; Homo sapiens, TT, 72 h): 1 nM

CC(C)(O)COc1cc(-c2ccc(N3CCC(Oc4ccc(OC5CC5)nc4)CC3)nc2)n2c(C#N)cnc2c1 [Example 84, 5-(6-(4-((6-cyclopropoxypyridin-3-yl)oxy)piperidin-1-yl)pyridin-3-yl)-7-(2-hydroxy-2-methylpropoxy)imidazo[1,2-a]pyri-dine-3-carbonitrile]
IC50 ([2]; Homo sapiens, TT, 72 h): 21 nM

COc1ccc(OC2CCN(c3ccc(-c4cc(OCCN=S(C)(C)=O)cc5ncc(C#N)n45)cn3)CC2)cn1 [Example 70, 7-(2-((dimethyl(oxo)-λ^6-sulfanylidene)ami-no)ethoxy)-5-(6-(4-((6-methoxypyridin-3-yl)oxy)piperidin-1-yl)pyridin-3-yl)imid-azo[1,2-a]pyridine-3-carbonitrile]
IC50 ([2]; Homo sapiens, TT, 72 h): 71 nM

C[C@@H](C(=O)N1CCN(c2ccc(-c3cc(-c4cnn(C)c4)cc4ncc(C#N)n34)cn2)CC1)c1ccccc1 [Example 10, (R)-7-(1-methyl-1H-pyrazol-4-yl)-5-(6-(4-(2-phenylpropanoyl)piperazin-1-yl)pyridin-3-yl)imidazo[1,2-a]pyri-dine-3-carbonitrile]
IC50 ([2]; Homo sapiens, TT, 72 h): 6 nM

C=Cc1ccc(OC2CCN(c3ccc(-c4cc(OCC(C)(C)O)cc5ncc(C#N)n45)cn3)CC2)cn1 [Example 82, 7-(2-hydroxy-2-methylpropoxy)-5-(6-(4-((6-vinylpyridin-3-yl)oxy)piperidin-1-yl)pyridin-3-yl)imidazo[1,2-a]pyridine-3-car-bonitrile]
IC50 ([2]; Homo sapiens, TT, 72 h): 15 nM

N#Cc1cnc2cc(OCC3(O)CC3)cc(-c3ccc(N4CCC(Oc5ccc(OC6CC6)nc5)CC4)nc3)n12 [Example 85, 5-(6-(4-((6-cyclopropoxypyridin-3-yl)oxy)piperidin-1-yl)pyridin-3-yl)-7-((1-hy-droxycyclopropyl)methoxy)imidazo[1,2-a] pyridine-3-carbonitrile]
IC50 ([2]; Homo sapiens, TT, 72 h): 12 nM

COc1ccc(CN2CCN(c3ccc(-c4nc(-c5cnn(C)c5)cc5ncc(C#N)n45)cn3)CC2)nc1 [Example 24, 5-(6-(4-((5-methoxypyridin-2-yl)meth-yl)piperazin-1-yl)pyridin-3-yl)-7-(1-methyl-1H-pyrazol-4-yl)imidazo[1,2-c]pyrimidine-3-carbonitrile]
IC50 ([2]; Homo sapiens, TT, 72 h): 86 nM

CCc1ccc(OC2CCN(c3ccc(-c4cc(OCC(C)(C)O)cc5ncc(C#N)n45)cn3)CC2)cn1 [Example 73, 5-(6-(4-((6-ethylpyridin-3-yl)oxy)piperidin-1-yl)pyridin-3-yl)-7-(2-hydroxy-2-meth-ylpropoxy)imidazo[1,2-a]pyridine-3-car-bonitrile]
IC50 ([2]; Homo sapiens, TT, 72 h): 1 nM

C=Cc1ccc(OC2CCN(c3ccc(-c4cc(OCC5(O)CC5)cc5ncc(C#N)n45)cn3)CC2)cn1 [Example 83, 7-((1-hydroxycyclopropyl)methoxy)-5-(6-(4-((6-vinylpyridin-3-yl)oxy)piperidin-1-yl)pyridin-3-yl)imidazo[1,2-a]pyridine-3-carbonitrile]
IC50 ([2]; Homo sapiens, TT, 72 h): 17 nM

[2H]C([2H])([2H])Oc1ccc(OC2CCN(c3ccc(-c4cc(OCC(C)(C)O)cc5ncc(C#N)n45)cn3)CC2)cn1 [Example 61, 7-(2-Hydroxy-2-methylpropoxy)-5-(6-(4-((6-(methoxy-d3)pyridin-3-yl)oxy)piperidin-1-yl)pyridin-3-yl)imidazo[1,2-a]pyridine-3-carbonitrile]
IC50 ([2]; Homo sapiens, TT, 72 h): 15 nM

COc1ccc(O[C@H]2CCN(c3ccc(-c4cc(OCC5(O)CC5)cc5ncc(C#N)n45)cn3)C2)cn1 [Example 90, (S)-7-((1-hydroxycyclopropyl)methoxy)-5-(6-(3-((6-methoxypyridin-3-yl)oxy)pyr-rolidin-1-yl)pyridin-3-yl)imidazo[1,2-a] pyridine-3-carbonitrile]
IC50 ([2]; Homo sapiens, TT, 72 h): 13 nM

COc1ccc(O[C@@H]2CCN(c3ccc(-c4cc(OCC5(O)CC5)cc5ncc(C#N)n45)cn3)C2)cn1 [Example 96, (R)-7-((1-hydroxycyclopropyl)methoxy)-5-(6-(3-((6-methoxypyridin-3-yl)oxy)pyr-rolidin-1-yl)pyridin-3-yl)imidazo[1,2-a] pyridine-3-carbonitrile]
IC50 ([2]; Homo sapiens, TT, 72 h): 9 nM

COc1ccc(CN2C3CC2CN(c2ccc(-c4cc(OCCN=S(C)(C)=O)cc5ncc(C#N)n45)cn2)C3)cn1 [Example 58, 7-(2-((Dimethyl(oxo)-λ^6-sulfanylidene)amino)ethoxy)-5-(6-(6-((6-methoxypyridin-3-yl)methyl)-3,6-diazabicyclo[3.1.1]heptan-3-yl)pyridin-3-yl)imidazo[1,2-a]pyridine-3-carbonitrile]
IC50 ([2]; Homo sapiens, TT, 72 h): 120 nM
